Data reported in the supplement of paper PMC6470124.

What was measured:
[1] = absolute recovery over mixed-bed multilayer solid-phase extraction; higher = better recovery; conditions: enrichment method: SPE
Outline: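 A three-layer mixed-bed cartridge was loaded with 100–250 mL of wastewater (adjusted to pH 6.5, glass-fibre filtered) or 1000 mL of unfiltered nanopure water, then eluted with basic and subsequently acidic ethyl acetate/methanol. Standards were introduced pre-extraction, post-extraction, or not at all, at 200 ng/L for water and 1000 ng/L for wastewater, except for certain classes. Once internal standards had been added, both ionisation modes were run by liquid chromatography with high-resolution tandem mass spectrometry. Absolute recovery was derived from background-corrected response ratios of pre- against post-spiked samples, averaged over at least two replicates.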

[2] = absolute recovery over vacuum-assisted evaporative concentration; higher = better recovery; conditions: enrichment method: VEC
Outline: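 Absolute recovery was calculated as (response ratio pre − unspiked)/(post − unspiked) × 100 from averages of ≥ 2 replicates. Influent (6 mL), effluent (15 mL), and surface and nanopure water (60 mL) samples were spiked with standards before concentration, after concentration, or not at all, at 200 ng/L for nanopure and surface water or 1000 ng/L for wastewater, with class- and compound-specific adjustments. Samples were evaporated at 55 °C and 20 mbar to about 0.3 mL, made up to 0.4 mL and centrifuged, then internal standards were added before LC-HRMS/MS analysis.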

[3] = LC retention time (Atlantis T3, 5-95% MeOH gradient, 0.1% formic acid); higher = more retained / less polar
Outline: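 Retention times refer to reference standards measured by liquid chromatography with high-resolution tandem mass spectrometry. Separation was on an Atlantis T3 C18 column (3 × 150 mm, 3 μm) at 0.3 mL/min with a 5 to 95% methanol gradient over 17.5 min, both solvents carrying 0.1% formic acid. Positive and negative electrospray were run separately on a QExactive Plus, and TraceFinder peak integration (5 ppm tolerance, at least three points per peak) was reviewed by hand.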

Row | Compound | absolute recovery ([1]; nanopure water) [%] | absolute recovery ([1]; surface water) [%] | absolute recovery ([1]; wastewater effluent) [%] | absolute recovery ([1]; wastewater influent) [%] | absolute recovery ([2]; wastewater effluent) [%] | absolute recovery ([2]; wastewater influent) [%] | LC retention time [3] [min]
1 | CCCCc1c(C)nc(NCC)nc1OS(=O)(=O)N(C)C [Bupirimate] | 83.8 | 85.1 | 93.3 | 74.8 | 105 | 117 | 19.3
2 | CCCC[NH+]1CCCCC1C(=O)Nc1c(C)cccc1C (stereo unspecified) [Bupivacaine] | 92 | 93.1 | 90.3 | 93.7 | 104 | 103 | 13.9
3 | CC(C)N1C(=O)N(c2ccccc2)CSC1=NC(C)(C)C [Buprofezin] | 67.9 | 86.2 | 87.5 | 118 | 75.3 | 100 | 22
4 | CC([NH2+]C(C)(C)C)C(=O)c1cccc(Cl)c1 (stereo unspecified) [Bupropion] | 79.1 | 78 | 74.3 | 78.3 | 51.1 | 31.5 | 13.5
5 | CCOc1nc2cccc(C(=O)[O-])c2n1Cc1ccc(-c2ccccc2-c2nnn[n-]2)cc1 [Candesartan] | 96.9 | 97.3 | 90.7 | 92.5 | 104 | 99.4 | 18.7
6 | CCCCCOC(=O)[N-]c1nc(=O)n(C2OC(C)C(O)C2O)cc1F (stereo unspecified) [Capecitabin] | 93.3 | 93.1 | 90.8 | 96.3 | 108 | 101 | 17.7
7 | NC(=O)N1c2ccccc2C(O)C(O)c2ccccc21 (stereo unspecified) [Carbamazepin-10-11-dihydro-10-11-dihydroxy] | 95.2 | 97.5 | 94.2 | 96 | 97.7 | 93.4 | 15.3
8 | NC(=O)N1c2ccccc2C2OC2c2ccccc21 (stereo unspecified) [Carbamazepin-10-11-epoxid] | 96.6 | 97.3 | 94.8 | 92.2 | 105 | 102 | 15.7
9 | NC(=O)N1c2ccccc2C=Cc2ccccc21 [Carbamazepin] | 99 | 97.8 | 93.5 | 93.2 | 104 | 98.2 | 17.6
10 | COC(=O)Nc1nc2ccccc2[nH]1 [Carbendazim] | 96.1 | 94.3 | 93.2 | 94.1 | 105 | 103 | 10.8
11 | CCNC(=O)C(C)OC(=O)Nc1ccccc1 (stereo unspecified) [Carbetamid] | 94.2 | 100 | 94.9 | 88.7 | 118 | 101 | 16.5
12 | CNC(=O)Oc1cccc2c1OC(C)(C)C2 [Carbofuran] | 91.7 | 91.3 | 94.7 | 93.5 | 83.9 | 96.7 | 17
13 | CCCC(C)(COC(N)=O)COC(=O)NC(C)C (stereo unspecified) [Carisoprodol] | 99.3 | 97.9 | 93.1 | 92.4 | 104 | 102 | 18.1
14 | CC([NH3+])C(O)c1ccccc1 (stereo unspecified) [Cathine] | 75.1 | 70.2 | 68.1 | 77.6 | 104 | 96.1 | 9.27
15 | CCN(CC)C(=O)Nc1ccc(OCC(O)C[NH2+]C(C)(C)C)c(C(C)=O)c1 (stereo unspecified) [Celiprolol] | 86.4 | 84.3 | 90.1 | 84.6 | 103 | 103 | 13
16 | O=C([O-])COCC[NH+]1CCN(C(c2ccccc2)c2ccc(Cl)cc2)CC1 (stereo unspecified) [Cetirizin] | 97.8 | 96.3 | 95.8 | 92.2 | 107 | 100 | 17.4
17 | CCOP(=O)(OCC)OC(=CCl)c1ccc(Cl)cc1Cl [Chlorfenvinphos] | 85.1 | 86.4 | 94.3 | 86.9 | 112 | 104 | 20.9
18 | Nc1cn[nH+]c([O-])c1Cl [Chloridazon-desphenyl] | 58.5 | 67.9 | 70.2 | 72.3 | 102 | 98.3 | 7.56
19 | Cn1ncc(N)c(Cl)c1=O [Chloridazon-methyl-desphenyl] | 91.5 | 102 | 97 | 101 | 99.2 | 104 | 10.2
20 | Nc1cnn(-c2ccccc2)c(=O)c1Cl [Chloridazon] | 97.1 | 98.1 |  | 96.1 | 104 | 104 | 14.7
21 | NS(=O)(=O)c1cc(C2(O)NC(=O)c3ccccc32)ccc1Cl (stereo unspecified) [Chlorthalidon] | 94.1 |  | 96.5 |  | 98.1 | 104 | 14.2
22 | Cc1ccc(NC(=O)N(C)C)cc1Cl [Chlortoluron] | 98 | 101 | 93 | 94.8 | 107 | 102 | 18.2
23 | CC1(C)CC1C(=O)NC(=CCCCCSCC([NH3+])C(=O)[O-])C(=O)[O-] (stereo unspecified) [Cilastatin] | 47.7 | 13.1 | 19.5 | 37 | 103 | 80.5 | 13.6
24 | O=C([O-])c1cn(C2CC2)c2cc(N3CC[NH2+]CC3)c(F)cc2c1=O [Ciprofloxacin] | 77.2 | 73.9 | 72.6 | 73.8 | 105 |  | 11.7
25 | C[NH+](C)CCCC1(c2ccc(F)cc2)OCc2cc(C#N)ccc21 (stereo unspecified) [Citalopram] | 94.1 | 96.1 | 92.4 | 93.9 | 104 | 100 | 14.5
